# In PubChem BioAssay AID1963983 (Molecular Pharmacology Branch, DTP, NCI, 2024):
# System: 186277-243-T-J2-PDC multi-cell spheroid viability
# Test: Anticancer human tumor 186277-243-T-J2-PDC patient-derived colon adenocarcinoma cell line growth inhibition [PI3K]
# Details: for IC50: curve of first compound; for viability, T/C: stronger effect = lower value
# In short: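 Tumor cells were combined with HUVEC and MSCs into spheroids, then dosed with PI3K-inhibitor combinations over half-log ranges capped near clinical Cmax or 10 microM.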
# [1] = second compound 0.00316 µM, first compound 0.0316 µM
# [2] = second compound 0.00316 µM, first compound 0.1 µM
# [3] = second compound 0.01 µM, first compound 0.0316 µM
# [4] = second compound 0.01 µM, first compound 0.1 µM
# [5] = second compound 0.0316 µM, first compound 0.0316 µM
# [6] = second compound 0.0316 µM, first compound 0.1 µM
# [7] = second compound 0.1 µM, first compound 0.0316 µM
# [8] = second compound 0.1 µM, first compound 0.1 µM
# [9] = second compound 0.316 µM, first compound 0.0316 µM
# [10] = second compound 0.316 µM, first compound 0.1 µM
# [11] = second compound 1 µM, first compound 0.0316 µM
# [12] = second compound 1 µM, first compound 0.1 µM
# 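Also: spheroids exposed to compounds for seven days before viability reading.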
# 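For viability, T/C in this document: 100% = DMSO vehicle control viability.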
structure (smiles),measurement,setting,value
CC(=O)c1c(C)c2cnc(Nc3ccc(N4CCNCC4)cn3)nc2n(C2CCCC2)c1=O + COc1c(OCCCN2CCOCC2)ccc2c3n(c(=NC(=O)c4cnc(N)nc4)nc12)CCN3,IC50,second compound 0.00316 µM,> 100 nM
same,IC50,second compound 0.01 µM,> 100 nM
same,IC50,second compound 0.0316 µM,57.4 nM
same,IC50,second compound 0.1 µM,< 0.316 nM
same,IC50,second compound 0.316 µM,< 0.316 nM
same,IC50,second compound 1 µM,< 0.316 nM
same,"viability, T/C","second compound 0.00316 µM, first compound 0.000316 µM",101%
same,"viability, T/C","second compound 0.00316 µM, first compound 0.001 µM",107%
same,"viability, T/C","second compound 0.00316 µM, first compound 0.00316 µM",97.3%
same,"viability, T/C","second compound 0.00316 µM, first compound 0.01 µM",94.9%
same,"viability, T/C",[1],112%
same,"viability, T/C",[2],113%
same,"viability, T/C","second compound 0.01 µM, first compound 0.000316 µM",110%
same,"viability, T/C","second compound 0.01 µM, first compound 0.001 µM",102%
same,"viability, T/C","second compound 0.01 µM, first compound 0.00316 µM",87.9%
same,"viability, T/C","second compound 0.01 µM, first compound 0.01 µM",91.7%
same,"viability, T/C",[3],117%
same,"viability, T/C",[4],99.5%
same,"viability, T/C","second compound 0.0316 µM, first compound 0.000316 µM",64.2%
same,"viability, T/C","second compound 0.0316 µM, first compound 0.001 µM",67.2%
same,"viability, T/C","second compound 0.0316 µM, first compound 0.00316 µM",68.8%
same,"viability, T/C","second compound 0.0316 µM, first compound 0.01 µM",58.9%
same,"viability, T/C",[5],51.3%
same,"viability, T/C",[6],47.2%
same,"viability, T/C","second compound 0.1 µM, first compound 0.000316 µM",15.6%
same,"viability, T/C","second compound 0.1 µM, first compound 0.001 µM",14.4%
same,"viability, T/C","second compound 0.1 µM, first compound 0.00316 µM",13.9%
same,"viability, T/C","second compound 0.1 µM, first compound 0.01 µM",17.4%
same,"viability, T/C",[7],11.6%
same,"viability, T/C",[8],13.2%
same,"viability, T/C","second compound 0.316 µM, first compound 0.000316 µM",3.72%
same,"viability, T/C","second compound 0.316 µM, first compound 0.001 µM",3.94%
same,"viability, T/C","second compound 0.316 µM, first compound 0.00316 µM",6.08%
same,"viability, T/C","second compound 0.316 µM, first compound 0.01 µM",4.53%
same,"viability, T/C",[9],4.8%
same,"viability, T/C",[10],5.23%
same,"viability, T/C","second compound 1 µM, first compound 0.000316 µM",3.84%
same,"viability, T/C","second compound 1 µM, first compound 0.001 µM",2.22%
same,"viability, T/C","second compound 1 µM, first compound 0.00316 µM",3.44%
same,"viability, T/C","second compound 1 µM, first compound 0.01 µM",3.39%
same,"viability, T/C",[11],2.44%
same,"viability, T/C",[12],1.63%
CNC(=O)c1ccc(N2C(=S)N(c3ccc(C#N)c(C(F)(F)F)c3)C(=O)C2(C)C)cc1F + COc1c(OCCCN2CCOCC2)ccc2c3n(c(=NC(=O)c4cnc(N)nc4)nc12)CCN3,IC50,second compound 0.00316 µM,> 10000 nM
same,IC50,second compound 0.01 µM,> 10000 nM
same,IC50,second compound 0.0316 µM,> 10000 nM
same,IC50,second compound 0.1 µM,< 31.6 nM
same,IC50,second compound 0.316 µM,< 31.6 nM
same,IC50,second compound 1 µM,< 31.6 nM
same,"viability, T/C",[1],110%
same,"viability, T/C",[2],113%
same,"viability, T/C","second compound 0.00316 µM, first compound 0.316 µM",111%
same,"viability, T/C","second compound 0.00316 µM, first compound 1 µM",88.2%
same,"viability, T/C","second compound 0.00316 µM, first compound 3.16 µM",112%
same,"viability, T/C","second compound 0.00316 µM, first compound 10 µM",107%
same,"viability, T/C",[3],98.8%
same,"viability, T/C",[4],121%
same,"viability, T/C","second compound 0.01 µM, first compound 0.316 µM",103%
same,"viability, T/C","second compound 0.01 µM, first compound 1 µM",94.8%
same,"viability, T/C","second compound 0.01 µM, first compound 3.16 µM",112%
same,"viability, T/C","second compound 0.01 µM, first compound 10 µM",115%
same,"viability, T/C",[5],88.9%
same,"viability, T/C",[6],85.6%
same,"viability, T/C","second compound 0.0316 µM, first compound 0.316 µM",81.3%
same,"viability, T/C","second compound 0.0316 µM, first compound 1 µM",81.7%
same,"viability, T/C","second compound 0.0316 µM, first compound 3.16 µM",95.3%
same,"viability, T/C","second compound 0.0316 µM, first compound 10 µM",73.4%
same,"viability, T/C",[7],23.3%
same,"viability, T/C",[8],20.2%
same,"viability, T/C","second compound 0.1 µM, first compound 0.316 µM",21.5%
same,"viability, T/C","second compound 0.1 µM, first compound 1 µM",17.8%
same,"viability, T/C","second compound 0.1 µM, first compound 3.16 µM",19.6%
same,"viability, T/C","second compound 0.1 µM, first compound 10 µM",22.7%
same,"viability, T/C",[9],6.01%
same,"viability, T/C",[10],6.73%
same,"viability, T/C","second compound 0.316 µM, first compound 0.316 µM",4.24%
same,"viability, T/C","second compound 0.316 µM, first compound 1 µM",5.77%
same,"viability, T/C","second compound 0.316 µM, first compound 3.16 µM",7.13%
same,"viability, T/C","second compound 0.316 µM, first compound 10 µM",5.44%
same,"viability, T/C",[11],3.23%
same,"viability, T/C",[12],2.22%
same,"viability, T/C","second compound 1 µM, first compound 0.316 µM",3.19%
same,"viability, T/C","second compound 1 µM, first compound 1 µM",1.9%
same,"viability, T/C","second compound 1 µM, first compound 3.16 µM",2.85%
same,"viability, T/C","second compound 1 µM, first compound 10 µM",4.06%
Cn1cnc2c(F)c(Nc3ccc(Br)cc3Cl)c(C(=O)NOCCO)cc21 + COc1c(OCCCN2CCOCC2)ccc2c3n(c(=NC(=O)c4cnc(N)nc4)nc12)CCN3,IC50,second compound 0.00316 µM,73.9 nM
same,IC50,second compound 0.01 µM,29.9 nM
same,IC50,second compound 0.0316 µM,< 9.49 nM
same,IC50,second compound 0.1 µM,< 9.49 nM
same,IC50,second compound 0.316 µM,< 9.49 nM
same,IC50,second compound 1 µM,< 9.49 nM
same,"viability, T/C","second compound 0.00316 µM, first compound 0.00949 µM",91.7%
same,"viability, T/C","second compound 0.00316 µM, first compound 0.03 µM",74.6%
same,"viability, T/C","second compound 0.00316 µM, first compound 0.0949 µM",38.3%
same,"viability, T/C","second compound 0.00316 µM, first compound 0.3 µM",28.9%
same,"viability, T/C","second compound 0.00316 µM, first compound 0.949 µM",13.1%
same,"viability, T/C","second compound 0.00316 µM, first compound 3 µM",7.3%
same,"viability, T/C","second compound 0.01 µM, first compound 0.00949 µM",81.6%
same,"viability, T/C","second compound 0.01 µM, first compound 0.03 µM",50%
same,"viability, T/C","second compound 0.01 µM, first compound 0.0949 µM",24.9%
same,"viability, T/C","second compound 0.01 µM, first compound 0.3 µM",11.7%
same,"viability, T/C","second compound 0.01 µM, first compound 0.949 µM",8.98%
same,"viability, T/C","second compound 0.01 µM, first compound 3 µM",5.03%
same,"viability, T/C","second compound 0.0316 µM, first compound 0.00949 µM",28.9%
same,"viability, T/C","second compound 0.0316 µM, first compound 0.03 µM",20.9%
same,"viability, T/C","second compound 0.0316 µM, first compound 0.0949 µM",13.5%
same,"viability, T/C","second compound 0.0316 µM, first compound 0.3 µM",8.43%
same,"viability, T/C","second compound 0.0316 µM, first compound 0.949 µM",3.94%
same,"viability, T/C","second compound 0.0316 µM, first compound 3 µM",2.23%
same,"viability, T/C","second compound 0.1 µM, first compound 0.00949 µM",14.6%
same,"viability, T/C","second compound 0.1 µM, first compound 0.03 µM",7.23%
same,"viability, T/C","second compound 0.1 µM, first compound 0.0949 µM",5.32%
same,"viability, T/C","second compound 0.1 µM, first compound 0.3 µM",2.22%
same,"viability, T/C","second compound 0.1 µM, first compound 0.949 µM",0.6%
same,"viability, T/C","second compound 0.1 µM, first compound 3 µM",0.24%
same,"viability, T/C","second compound 0.316 µM, first compound 0.00949 µM",2.44%
same,"viability, T/C","second compound 0.316 µM, first compound 0.03 µM",1.09%
same,"viability, T/C","second compound 0.316 µM, first compound 0.0949 µM",1.66%
same,"viability, T/C","second compound 0.316 µM, first compound 0.3 µM",0.37%
same,"viability, T/C","second compound 0.316 µM, first compound 0.949 µM",0.45%
same,"viability, T/C","second compound 0.316 µM, first compound 3 µM",0.11%
same,"viability, T/C","second compound 1 µM, first compound 0.00949 µM",0.41%
same,"viability, T/C","second compound 1 µM, first compound 0.03 µM",0.28%
same,"viability, T/C","second compound 1 µM, first compound 0.0949 µM",0.32%
same,"viability, T/C","second compound 1 µM, first compound 0.3 µM",0.14%
same,"viability, T/C","second compound 1 µM, first compound 0.949 µM",0.15%
same,"viability, T/C","second compound 1 µM, first compound 3 µM",0.18%
